Data as given in patent US5753695A, “Flavilium compounds and method of using” (Biogal Gyogyszergyar RT, priority 1992, dated 1998).

What was measured:
HIV-1 IIIB = assay: HIV reverse transcriptase activity / HIV replication in infected MT-4 and H9 human lymphocyte cell-lines; format: cell-based, HIV-1 strain IIIB
Procedure: The HIV reverse transcriptase inhibiting activity of compounds of formula (I) of the invention was measured by the method of Hoffman, A. D. et al. described in Virology, Vol. 147, pp. 326-335, 1985.
The measurement results are shown for the model compound 5,7,4'-trihydroxy-4,3',5'-trimethyl-flavilium chloride (hereinafter referred to as "BIOGAL 6") and prepared as described in Example 1 below.
The active agents were tested on MT-4 and H9 human lymphocyte cell-lines infected with the strain HIV-1 IIIB. The cells were infected with 20 TCID50 of the HIV-1 virus.
[…] The active agent was first added to the culture 4 hours before the infection, and then 24, and 48 hours after infection. HIV infected, untreated MT-4 and H9 cells were used, as well as uninfected, untreated cells as a control. The AZT-control was zidovudine (ZDU) sold by Burroughs Wellcome Company under the name Retrovir.
Reverse transcriptase inhibiting activity was determined on 500 μl aliquots from supernatant of the culture and their virus concentration was measured. The results are given in cpm/cm^3 indicating ^3 H-TTP.

[1] = test system: WISTAR Charles River/SPF laboratory rat strains; assay: Acute toxicity, WISTAR Charles River/SPF laboratory rats; format: in vivo; details: oral doses even as high as 2,000 μg/kg
Procedure: (§1) Acute toxicity examinations on CFP/SPF laboratory mice strains and WISTAR Charles River/SPF laboratory rat strains, orally and intravenously have shown that BIOGAL-6 is nontoxic at oral doses even as high as […].

CFP/SPF laboratory mice = assay: Acute toxicity, CFP/SPF laboratory mice; format: in vivo; details: oral doses even as high as 2,000 μg/kg
Procedure: as §1

In the case of `Cc1cn([C@H]2C[C@H](N=[N+]=[N-])[C@@H](CO)O2)c(=O)[nH]c1=O` [AZT, azidothymidine, reference compound], the RT activity (HIV-1 IIIB; Table 1, 5 μg/cm^3, 7 day) is reported as 2.195 cpm/cm^3, the RT activity (HIV-1 IIIB; Table 1, 5 μg/cm^3, 10 day) is reported as 2.127 cpm/cm^3 and the RT activity (HIV-1 IIIB; Table 1, 5 μg/cm^3, 18 day) is reported as 38.797 cpm/cm^3. The RT activity (HIV-1 IIIB; Table 1, 20 μg/cm^3, 7 day) was 2.386 cpm/cm^3, the RT activity (HIV-1 IIIB; Table 1, 20 μg/cm^3, 10 day) was 2.224 cpm/cm^3 and the RT activity (HIV-1 IIIB; Table 1, 20 μg/cm^3, 18 day) was 1.921 cpm/cm^3. The RT activity (HIV-1 IIIB; Table 1, 100 μg/cm^3, 7 day) was 2.220 cpm/cm^3, the RT activity (HIV-1 IIIB; Table 1, 100 μg/cm^3, 10 day) was 2.181 cpm/cm^3 and the RT activity (HIV-1 IIIB; Table 1, 100 μg/cm^3, 18 day) was 1.838 cpm/cm^3. It also gave an RT activity (HIV-1 IIIB; Table 2, 0.1 μg/cm^3, 7 day) of 7.392 cpm/cm^3, an RT activity (HIV-1 IIIB; Table 2, 0.1 μg/cm^3, 10 day) of 125.627 cpm/cm^3 and an RT activity (HIV-1 IIIB; Table 2, 0.1 μg/cm^3, 18 day) of 62.817 cpm/cm^3. It also gave an RT activity (HIV-1 IIIB; Table 2, 0.5 μg/cm^3, 7 day) of 6.148 cpm/cm^3, an RT activity (HIV-1 IIIB; Table 2, 0.5 μg/cm^3, 10 day) of 75.051 cpm/cm^3 and an RT activity (HIV-1 IIIB; Table 2, 0.5 μg/cm^3, 18 day) of 84.047 cpm/cm^3. The RT activity (HIV-1 IIIB; Table 2, 1.0 μg/cm^3, 7 day) was 3.989 cpm/cm^3, the RT activity (HIV-1 IIIB; Table 2, 1.0 μg/cm^3, 10 day) was 15.115 cpm/cm^3 and the RT activity (HIV-1 IIIB; Table 2, 1.0 μg/cm^3, 18 day) was 75.539 cpm/cm^3. The RT activity (HIV-1 IIIB; Table 2, 2.5 μg/cm^3, 7 day) was 3.231 cpm/cm^3, the RT activity (HIV-1 IIIB; Table 2, 2.5 μg/cm^3, 10 day) was 9.083 cpm/cm^3 and the RT activity (HIV-1 IIIB; Table 2, 2.5 μg/cm^3, 18 day) was 116.001 cpm/cm^3. For the same compound, the RT activity (HIV-1 IIIB; Table 2, 5.0 μg/cm^3, 7 day) was 1.724 cpm/cm^3, the RT activity (HIV-1 IIIB; Table 2, 5.0 μg/cm^3, 10 day) was 3.571 cpm/cm^3 and the RT activity (HIV-1 IIIB; Table 2, 5.0 μg/cm^3, 18 day) was 51.735 cpm/cm^3.

With `Cc1cc(-c2cc(C)c3c(O)cc(O)cc3[o+]2)cc(C)c1O` [BIOGAL 6, 5,7,4'-trihydroxy-4,3',5'-trimethyl-flavilium chloride] the “effect on HIV (in words)” value (HIV-1 IIIB; 1.0 μg/cm^3 and below) was “completely ineffective”, the “effect on HIV replication (in words)” value (HIV-1 IIIB; 5 μg/cm^3) was “completely blocked the HIV replication” and the “duration of effect compared to AZT (in words), FIG. 1” value (HIV-1 IIIB; 5 μg/cm^3, FIG. 1) was “long lasting when compared to AZT”. For the same compound, the “effect on HIV production (in words), FIG. 1” value (HIV-1 IIIB; 5 μg/cm^3, FIG. 1) was “completely blocked HIV production”, the “duration of effect on HIV (in words)” value (HIV-1 IIIB; 2.5 and 5 μg/cm^3) was “long-lasting” and the RT activity (HIV-1 IIIB; Table 1, 5 μg/cm^3, 7 day) was 1.795 cpm/cm^3. It also gave an RT activity (HIV-1 IIIB; Table 1, 5 μg/cm^3, 10 day) of 1.228 cpm/cm^3, an RT activity (HIV-1 IIIB; Table 1, 5 μg/cm^3, 18 day) of 1.198 cpm/cm^3 and an RT activity (HIV-1 IIIB; Table 1, 20 μg/cm^3, 7 day) of 1.748 cpm/cm^3. It also gave an RT activity (HIV-1 IIIB; Table 1, 20 μg/cm^3, 10 day) of 1.626 cpm/cm^3, an RT activity (HIV-1 IIIB; Table 1, 20 μg/cm^3, 18 day) of 1.300 cpm/cm^3 and an RT activity (HIV-1 IIIB; Table 1, 100 μg/cm^3, 7 day) of 1.666 cpm/cm^3. The RT activity (HIV-1 IIIB; Table 1, 100 μg/cm^3, 10 day) was 1.300 cpm/cm^3, the RT activity (HIV-1 IIIB; Table 1, 100 μg/cm^3, 18 day) was 1.359 cpm/cm^3 and the RT activity (HIV-1 IIIB; Table 2, 0.1 μg/cm^3, 7 day) was 111.035 cpm/cm^3. It also gave an RT activity (HIV-1 IIIB; Table 2, 0.1 μg/cm^3, 10 day) of 99.813 cpm/cm^3, an RT activity (HIV-1 IIIB; Table 2, 0.1 μg/cm^3, 18 day) of 45.535 cpm/cm^3 and an RT activity (HIV-1 IIIB; Table 2, 0.5 μg/cm^3, 7 day) of 108.846 cpm/cm^3. For the same compound, the RT activity (HIV-1 IIIB; Table 2, 0.5 μg/cm^3, 10 day) was 98.150 cpm/cm^3, the RT activity (HIV-1 IIIB; Table 2, 0.5 μg/cm^3, 18 day) was 43.804 cpm/cm^3 and the RT activity (HIV-1 IIIB; Table 2, 1.0 μg/cm^3, 7 day) was 96.638 cpm/cm^3. It also gave an RT activity (HIV-1 IIIB; Table 2, 1.0 μg/cm^3, 10 day) of 75.917 cpm/cm^3, an RT activity (HIV-1 IIIB; Table 2, 1.0 μg/cm^3, 18 day) of 38.595 cpm/cm^3 and an RT activity (HIV-1 IIIB; Table 2, 2.5 μg/cm^3, 7 day) of 6.231 cpm/cm^3. For the same compound, the RT activity (HIV-1 IIIB; Table 2, 2.5 μg/cm^3, 10 day) was 8.938 cpm/cm^3, the RT activity (HIV-1 IIIB; Table 2, 2.5 μg/cm^3, 18 day) was 6.803 cpm/cm^3 and the RT activity (HIV-1 IIIB; Table 2, 5.0 μg/cm^3, 7 day) was 1.478 cpm/cm^3. For the same compound, the RT activity (HIV-1 IIIB; Table 2, 5.0 μg/cm^3, 10 day) was 1.019 cpm/cm^3, the RT activity (HIV-1 IIIB; Table 2, 5.0 μg/cm^3, 18 day) was 1.226 cpm/cm^3 and the acute toxicity [1] was “nontoxic”. For the same compound, the acute toxicity (CFP/SPF laboratory mice) was “nontoxic”.
